The subject of experiment [1] is HIV-1 T20R. The experiment is classed as cell-based. The note with it: HIV-1 T20R, Table 5. The text has this: The infectivity assays score for reduction of infectious virus titer employing the indicator cell lines MAGI or the CCR5 expressing derivative cMAGI. Both cell lines exploit the ability of HIV-1 that to transactivate the expression of a β-galactosidase reporter gene driven by the HIV-LTR. The β-gal reporter has been modified to localize in the nucleus and can be detected with the X-gal substrate as intense nuclear staining within a few days of infection. The number of stained nuclei can thus be interpreted as equal to the number of infectious virions in the challenge inoculum if there is only one round of infection prior to staining. […] The peptide (in the respective dilution) was added to the CMAGI or MAGI cells, followed by the virus inocula; and 24 hours later, an inhibitor of infection and cell-cell fusion (e.g., T20) was added to prevent secondary rounds of HIV infection and cell-cell virus spread. The cells were cultured for 2 more days, and then fixed and stained with the X-gal substrate to detect HIV-infected cells. The number of infected cells for each control and peptide dilution was determined with the CCD-imager, and then the IC50 and IC90 were calculated (expressed in μg/ml).
In this first example of antiviral potency, two clinical isolates of HIV were obtained from the same HIV-infected individual.
Using the methods taught in Example 1 herein, additional conjugates were produced by varying the polymer, the terminus of the synthetic peptide which is operably bound to polymer, and the reactive functionality used for operably binding synthetic peptide to polymer. Two molecules of synthetic peptide (e.g. SEQ ID NO:4) were operably bound to polymer.

For experiment [2], the system named is HIV-1 strain IIIB. In words: In vitro infectivity assay, HIV-1 strain IIIB (Table 5). The class given is cell-based. The text has this: (§1) Illustrated in this example is the unexpected result of antiviral potency using the conjugates according to the present invention. […] In determining antiviral activity (e.g., one measure being the ability to inhibit transmission of HIV to a target cell) of the conjugates according to the present invention, used was an in vitro assay which has been shown, by data generated using synthetic peptides derived from either of the HR regions of HIV gp41, to be predictive of antiviral activity observed in vivo.
(§2) The infectivity assays score for reduction of infectious virus titer employing the indicator cell lines MAGI or the CCR5 expressing derivative cMAGI. Both cell lines exploit the ability of HIV-1 that to transactivate the expression of a β-galactosidase reporter gene driven by the HIV-LTR. The β-gal reporter has been modified to localize in the nucleus and can be detected with the X-gal substrate as intense nuclear staining within a few days of infection. The number of stained nuclei can thus be interpreted as equal to the number of infectious virions in the challenge inoculum if there is only one round of infection prior to staining. Infected cells are enumerated using a CCD-imager and both primary and laboratory adapted isolates show a linear relationship between virus input and the number of infected cells visualized by the imager. […] Peptides tested for antiviral activity were diluted into various concentrations, and tested in duplicate or triplicate against an HIV inoculum adjusted to yield approximately 1500-2000 infected cells/well of a 48 well microtiter plate. The peptide (in the respective dilution) was added to the CMAGI or MAGI cells, followed by the virus inocula; and 24 hours later, an inhibitor of infection and cell-cell fusion (e.g., T20) was added to prevent secondary rounds of HIV infection and cell-cell virus spread. The cells were cultured for 2 more days, and then fixed and stained with the X-gal substrate to detect HIV-infected cells. The number of infected cells for each control and peptide dilution was determined with the CCD-imager, and then the IC50 and IC90 were calculated (expressed in μg/ml).
(§3) Using the methods taught in Example 1 herein, additional conjugates were produced by varying the polymer, the terminus of the synthetic peptide which is operably bound to polymer, and the reactive functionality used for operably binding synthetic peptide to polymer. Two molecules of synthetic peptide (e.g. SEQ ID NO:4) were operably bound to polymer. Such conjugates were then tested for antiviral activity against HIV isolates IIIB, and HIV-1 T20S & HIV-1 T20R (see Table 2 for HIV resistant strains), with the antiviral activity (IC50) expressed in μg/ml. The results for the various conjugates (Table 5, A-Q), terminus of synthetic peptide used for operably binding polymer (Table 5, C-terminus denoted as “C”, N-terminus denoted as “N”) or if an internal lysine was used (Table 5, “Lys 18”, signifying lysine as amino acid residue 18 in the amino acid sequence of the synthetic peptide), antiviral activity (IC50) against HIV-1 strain IIIB (Table 5, “IIIB”), antiviral activity (IC50) against HIV-1 T20S (Table 5, “T20S”) and antiviral activity (IC50) against HIV-1 T20R (Table 5, “T20R”), are illustrated in Table 5.

Experiment [3] deals with HIV-1 T20S. The class given is cell-based. Conditions: HIV-1 T20S, Table 5.
Source text: as §1, §2
In this first example of antiviral potency, two clinical isolates of HIV were obtained from the same HIV-infected individual. A first isolate, hereby designated “HIV-1 T20S” for ease of description, was sensitive to the antiviral effect of T20 (SEQ ID NO:4) both in vitro and in vivo. […] The results, with the IC50 expressed in ng/ml, are illustrated in Table 2.
as §3

The subject of experiment [4] is HIV. The note with it: Lawless et al., 1996; cited from earlier work.

The values below come from patent US20100016225A1, “CONJUGATES COMPRISED OF POLYMER AND HIV gp-41-DERIVED PEPTIDES AND THEIR USE IN THERAPY” (Trimeris, Inc., priority 2002, published 2010).

On to “Conjugate G: two molecules of SEQ ID NO:4 bound via N-terminus to alkyl C11”, for which the “T20R (antiviral activity, IC50)” value in experiment [1] was “.218 µg/mL”. The “IIIB (antiviral activity, IC50)” value in experiment [2] is “.174 µg/mL”. In addition, the “T20S (antiviral activity, IC50)” value in experiment [3] was “.176 µg/mL”.
With “Conjugate N: two molecules of SEQ ID NO:4 bound via N-terminus to PEG 10”, the “T20R (antiviral activity, IC50)” value in experiment [1] is “.023 µg/mL”. For the same substance, the “IIIB (antiviral activity, IC50)” value in experiment [2] is “.039 µg/mL”. Also, the “T20S (antiviral activity, IC50)” value in experiment [3] was “.017 µg/mL”.
For the substance “Conjugate M: two molecules of SEQ ID NO:4 bound via C-terminus to GLY-C2 (glycine linker)”, the “T20S (antiviral activity, IC50)” value in experiment [3] was “.085 µg/mL”.
Regarding “Conjugate Q: two molecules of SEQ ID NO:4 bound via internal lysine (Lys18) to PEG 6”, the “T20R (antiviral activity, IC50)” value in experiment [1] is “.120 µg/mL”. Moreover, the “IIIB (antiviral activity, IC50)” value in experiment [2] was “.057 µg/mL”. The “T20S (antiviral activity, IC50)” value in experiment [3] was “.055 µg/mL”.
Take “NNLLRAIEAQQHLLQLTVWGIKQLQARILAVERYLKDQ [DP107]”: the “50% effective concentration values (EC50), blocked infection of T cells” value in experiment [4] was 1 µg/mL.
With “Conjugate P: two molecules of SEQ ID NO:4 bound via C-terminus to GLY-PEG 6 (glycine linker)”, the “T20S (antiviral activity, IC50)” value in experiment [3] is “.031 µg/mL”.
For “Conjugate K: two molecules of SEQ ID NO:4 bound via N-terminus to PEG 4”, the “T20R (antiviral activity, IC50)” value in experiment [1] was “.067 µg/mL”. In addition, the “IIIB (antiviral activity, IC50)” value in experiment [2] is “.033 µg/mL”. Besides, in experiment [3], the “T20S (antiviral activity, IC50)” value was “.026 µg/mL”.
As for “Conjugate L: two molecules of SEQ ID NO:4 bound via C-terminus to GLY-PEG 3 (glycine linker)”, the “T20S (antiviral activity, IC50)” value in experiment [3] was “.061 µg/mL”.
As for “Conjugate E: two molecules of SEQ ID NO:4 bound via N-terminus to PEG 8”, the “T20R (antiviral activity, IC50)” value in experiment [1] was “.020 µg/mL”. For the same substance, in experiment [2], the “IIIB (antiviral activity, IC50)” value is “.018 µg/mL”. The “T20S (antiviral activity, IC50)” value in experiment [3] is “.026 µg/mL”.
Take “Conjugate F: two molecules of SEQ ID NO:4 bound via N-terminus to alkyl C8”: the “T20R (antiviral activity, IC50)” value in experiment [1] was “.087 µg/mL”. Besides, the “IIIB (antiviral activity, IC50)” value in experiment [2] is “.089 µg/mL”. Moreover, the “T20S (antiviral activity, IC50)” value in experiment [3] was “.049 µg/mL”.
Consider “Conjugate I: two molecules of SEQ ID NO:4 bound via N-terminus to PEG 4-6-4”, for which the “T20R (antiviral activity, IC50)” value in experiment [1] was “.029 µg/mL”. In experiment [2], the “IIIB (antiviral activity, IC50)” value was “.029 µg/mL”. In addition, the “T20S (antiviral activity, IC50)” value in experiment [3] was “.012 µg/mL”.
On to “Conjugate D: two molecules of SEQ ID NO:4 bound via N-terminus to alkyl C5”, for which the “T20R (antiviral activity, IC50)” value in experiment [1] was “.049 µg/mL”. Moreover, the “IIIB (antiviral activity, IC50)” value in experiment [2] was “.039 µg/mL”. Moreover, in experiment [3], the “T20S (antiviral activity, IC50)” value is “.036 µg/mL”.
In the same order, the values of “Conjugate B: two molecules of SEQ ID NO:4 bound via C-terminus to PEG 6” are “.070 µg/mL”, “.117 µg/mL” and “.053 µg/mL”.
As to “Conjugate O: two molecules of SEQ ID NO:4 bound via C-terminus to GLY-C6 (glycine linker)”, the “T20S (antiviral activity, IC50)” value in experiment [3] is “.083 µg/mL”.
For the substance “Conjugate J: two molecules of SEQ ID NO:4 bound via N-terminus to PEG 3”, in experiment [1], the “T20R (antiviral activity, IC50)” value is “.049 µg/mL”. Further, the “IIIB (antiviral activity, IC50)” value in experiment [2] was “.036 µg/mL”. In addition, in experiment [3], the “T20S (antiviral activity, IC50)” value is “.028 µg/mL”.
In the same order, the values of “LTWQEWDREINNYTSLIYSLIEESQNQQEENEQELL [synthetic peptide alone]” are 1.2 µg/mL, “.007 µg/mL” and “.010 µg/mL”.
As to “Conjugate H: SEQ ID NO:4 bound via N-terminus to AT, a triacid (e.g., trisuccinimidylamino triacetate)”, the “T20R (antiviral activity, IC50)” value in experiment [1] was “.124 µg/mL”. Further, in experiment [2], the “IIIB (antiviral activity, IC50)” value was “.046 µg/mL”. Also, the “T20S (antiviral activity, IC50)” value in experiment [3] is “.047 µg/mL”.
For “Conjugate C: two molecules of SEQ ID NO:4 bound via C-terminus to PEG 6” the same measures were “.050 µg/mL”, “.065 µg/mL” and “.046 µg/mL”.
In the same order, the values of “Conjugate A: two molecules of SEQ ID NO:4 bound via N-terminus to PEG 6” are “.050 µg/mL”, “.037 µg/mL” and “.029 µg/mL”.
